# Like-named read-outs stand apart in the source and are kept apart here. Ends that are not written are not given here.
# Tests used:
# B2M genomic DNA sequence = test: T7E1 DNA cleavage assay / % INDELs after CRISPR/Cas9-NLS or CRISPR/Cpf1-NLS delivery (HeLa, THP-1, NK, T cells); assay type: cell-based, Human; settings: CRISPR/Cpf1 1.33 μM, crRNA 2 μM; THP-1 and NK cells; different concentrations and exposure times
# From the text: The T7 endonuclease I (T7E1) can be used to detect on-target CRISPR/Cas genome editing events in cultured cells. As an overview, genomic DNA from target cells is amplified by PCR. The PCR products are then denatured and reannealed to allow heteroduplex formation between wild-type DNA and CRISPR/Cas-mutated DNA. T7E1, which recognizes and cleaves mismatched DNA, is used to digest the heteroduplexes. The resulting cleaved and full-length PCR products are visualized by gel electrophoresis.
# The T7E1 assay was performed with the Edit-R™ Synthetic crRNA Positive Controls (Dharmacon #U-007000-05) and the T7 Endonuclease I (NEB, Cat #M0302S). After the delivery of the CRISPR/Cas complex, cells were lysed in 100 μL of Phusion™ High-Fidelity DNA polymerase (NEB #M0530S) laboratory with additives. The cells were incubated for 15-30 minutes at 56° C., followed by deactivation for 5 minutes at 96° C. The plate was briefly centrifuged to collect the liquid at bottom of the wells. 50-μL PCR samples were set up for each sample to be analyzed. The PCR samples were heated to 95° C. for 10 minutes and then slowly (>15 minutes) cooled to room temperature. PCR product (-5 μL) was then separated on an agarose gel (2%) to confirm amplification. 15 μL of each reaction was incubated with T7E1 nuclease for 25 minutes at 37° C. Immediately, the entire reaction volume was run with the appropriate gel loading buffer on an agarose gel (2%).
# Cas9-NLS recombinant protein was prepared as described in Example 13.1. Cpf1-NLS recombinant protein was prepared as described in Example G.2. A mix composed of a Cas9-NLS recombinant protein with its respective crRNAltracrRNA, or a Cpf1-NLS recombinant protein with its respective single guide crRNA(s) (see below) targeting a nucleotide sequence of the B2M gene, was co-incubated with different concentrations of the peptides FSD10, FSD18, FSD19, FSD21, FSD22, or FSD23 and incubated with HeLa, THP-1 or NK cells for 90 sec in PBS, or for 1 h in medium without serum, or for 48 h in medium with serum, using the transduction protocols as generally described in Example 3.1a. Cells were then washed with PBS and harvested to proceed with the T7E1 protocol assay as described in Example 13.4.
# FIGS. 52A-52D show the results of the cleavage of the targeted genomic B2M DNA sequence after the delivery of CRISPR/Cpf1 (1.33 μM) with crRNA−1 or crRNA−2 (2 μM) in the absence (“-ctrl”) or in the presence of the peptides FSD10, FSD18, FSD19, FSD21 or FSD23 used at different concentrations, exposure times, and in different types of cells: THP-1 (FIG. 52A), and NK (FIGS. 52B, 52C, 52D), after separation by agarose gel electrophoresis. […] Gel lanes were loaded in duplicate. Thin dashed arrows indicate the bands corresponding to the target gene, and thick solid arrows indicate the bands corresponding to the cleavage products of this target gene, which indicate the successful transduction of fully functional CRISPR genome editing complexes. We used a Bio-Rad ImageLab™ software (Version 5.2.1, Bio-Rad, http://www.bio-rad.com/en-ca/product/image-lab-software?tab=Download) to quantify the relative signal intensities of each of the different bands directly on the gels. The sum of all the bands in a given lane corresponds to 100% of the signal, and the numerical value in italics at the bottom of each lane is the sum of the relative signals (%) of only the two cleavage product bands (thick solid arrows). No cleavage product bands were found in the negative controls (“-ctrl”, i.e., to cells that were exposed to CRISPR system in the absence of FSD peptide).
# Cas9-NLS recombinant protein was prepared as described in Example 13.1. Cpf1-NLS recombinant protein was prepared as described in Example G.2. […]
# THP-1 cells [1] = test: Cleaved PARP ELISA assay after transduction of anti-Active Caspase 3 or anti-TNF antibody (± actinomycin D); assay type: cell-based, human; settings: FSD23 7.5 μM, 5 min
# Procedure: (§1) A monoclonal (mAb) and a polyclonal (pAb) anti-Active Caspase 3 antibodies […] were independently co-incubated with THP-1 and Jurkat cells for 5 min in the presence of FSD23 at 7.5 μM. The anti-apoptotic effect of each antibody was assessed via the level of Caspase 3-activated apoptosis with an ELISA cleaved PARP assay and quantified by spectrometry as described below.
# (§2) The day of the experiment, cells in exponential growth phase were harvested, centrifugated (400g for 3 min) and resuspended in serum-free RPMI in a 96-well plate (500,000 cells in 150 μL per well). Cells were centrifugated and incubated for 5 min with a mix composed by the peptide to be tested (7.5 μM) and 2 μg of the antibody to be transduced. Cells were centrifuged and resuspended in RPMI with serum in a 24-well plate for 1 h at 37° C. Actinomycin D (2 μg/mL), a cytotoxic inducer of apoptosis, was incubated with the cells for 4 h. Cells were washed with cold PBS and tested using the PARP (Cleaved) [214/215]Human ELISA Kit (ThermoFisher) according to the manufacturer's instructions followed by spectroscopy analysis. […]
# Jurkat cells = test: as above; assay type: cell-based, Human; settings: FSD23 7.5 μM, 5 min
# Procedure: as §1, §2
# NK-92 cells = test: NKG2A gene inactivation by delivered CRISPR/Cpf1-NLS: PE anti-NKG2A immunolabelling, FACS; assay type: cell-based, Human; settings: FSD23 6 μM; Cpf1-NLS 1.5 μM; 90 sec; 48 h
# Procedure: Genome editing was performed in NK-92 cells to evaluate whether inactivation of the endogenous NKG2A gene could increase the cytotoxicity of the NK-92 cells. Briefly, one million NK-92 cells were incubated with Cpf1-NLS (1.5 μM) gRNA complex targeting the NKG2A gene and with FSD23 (6 μM) for 90 sec. After transduction, cells were incubated in complete medium with IL-2 (20 ng/mL) for 48 h at 37° C. NK-92 cells were then immunolabelled with a phycoerythrin (PE)-labelled anti-NKG2A antibody (Miltenyi Biotec #CD159a) following the manufacturer recommendations. NK-92 cells were then analyzed with FACS and scored as a function of their anti-NKG2A detection (PE fluorescence) level and the results are shown in FIG. 57A. As controls, unlabelled wild-type NK-92 cells (“unlabelled WT cells”) had no antibody signal, and labelled wild-type NK-92 cells (“labelled WT cells”) had full immunolabelling signal.
# in vitro [2] = settings: human, HeLa cells; for viability: Cell viability (%) (±St Dev.; n = 3)
# in vitro [3] = settings: human, HeLa cells
# HeLa cells [4] = test: Plasmid DNA (pEGFP-C1) transfection by peptides (% cells with GFP signal, cell viability); settings: DNA transfection in HeLa cells using peptides; pEGFP-C1 plasmid
# HeLa cells [5] = test: GFP-NLS protein transduction assay (flow cytometry: Pos cells %, viability %, relative fluorescence intensity; microscopy); settings: for Mean % cells with GFP signal (±St. Dev.; n = 3): Table B2, HeLa cells, GFP-NLS cargo; for FIG. 13B Cell viability (%) (±St Dev.; n = 3): Table 5.1; for FIG. 13B Cell viability (%) (±St Dev.; n = 3) / FIG. 21B Cell viability (%) (±St. Dev.; n = 3): GFP-NLS 5 μM, HeLa, 1 hour; for FIG. 21B Cell viability (%) (±St. Dev.; n = 3): Table 8.1
# HeLa cells [6] = test: Transduction of anti-NUP98 antibody, immuno-labelling and fluorescence microscopy; assay type: cell-based, Human; settings: FSD19 7.5 μM; 4 hours
# Procedure: Anti-NUP98 antibody […] was co-incubated with 7.5 μM of FSD19 and exposed to HeLa cells for 4 hours. Cells are washed, fixed with paraformaldehyde 4%, permeabilized with 0.1% Triton™ and labeled with a fluorescently labeled (Alexa™ Fluor 488) goat anti-rat antibody. Antibody bound to the perinuclear membrane and cell nuclei were visualized by fluorescence microscopy at 20× (upper panels) and 40× (lower panels).
# in vitro [7] = settings: human, THP-1 cells
# Procedure: (§3) One day before the transduction assay was performed, cells in exponential growth phase were harvested and plated in a 96-well plate (20,000 cells per well). The cells were incubated overnight in appropriate growth media containing FBS (see Example 1). The next day, in separate sterile 1.5 mL tubes, cargo protein at the indicated concentration was pre-mixed (pre-incubated) for 1 or 10 min (depending on the protocol) at 37° C. with the peptide(s) to be tested shuttle agents (0.5 to 5 μM) in 50 μL of fresh medium without serum (unless otherwise specified). The media in wells was removed and the cells were washed three times with freshly prepared phosphate buffered saline (PBS) previously warmed at 37° C. The cells were incubated with the cargo protein/shuttle agent mixture at 37° C. for the indicated time (e.g., 1, 5 or 60 min). After the incubation, the cells were quickly washed three times with freshly prepared PBS and/or heparin (0.5 mg/mL) previously warmed at 37° C. The washes with heparin were required for human THP-1 blood cells to avoid undesired cell membrane-bound protein background in subsequent analyses (microscopy and flow cytometry). The cells were finally incubated in 50 μL of fresh medium with serum at 37° C. before analysis.
# (§4) One day before the transduction assay was performed, suspension cells in exponential growth phase were harvested and plated in a 96-well plate (20,000 cells per well). The cells were incubated overnight in appropriate growth media containing serum (see Example 1). The next day, in separate sterile 1.5-mL tubes, peptides were diluted in sterile distilled water at room temperature (if the cargo is or comprised a nucleic acid, nuclease-free water was used). Cargo protein(s) were then added to the peptides and, if necessary, sterile PBS or cell culture medium (serum-free) was added to obtain the desired concentrations of shuttle agent and cargo in a sufficient final volume to resuspend the cells (e.g., 10 to 100 μL per well in a 96-well plate). The shuttle agent/peptide was then immediately used for experiments. At least three controls were included for each experiment, including: (1) peptide alone (e.g., at highest concentration tested); (2) cargo alone; and (3) without any cargo or shuttle agent. The cells were centrifuged for 2 minutes at 400g, the medium was then removed and the cells were resuspended in PBS previously warmed at 37° C. The cells were centrifuged again 2 minutes at 400g, the PBS removed, and the cells were resuspended with the cargo protein/peptide mixture at 37° C. for the desired length of time. After that, 200 μL of complete medium was added directly on the cells. Cells were centrifuged for 2 minutes at 400g and the medium was removed. The pellet was resuspended and washed in 200 μL of PBS previously warmed at 37° C. After another centrifugation, the PBS was removed and the cells were resuspended in 50 μL of trypsin-EDTA solution for 2 min. 200 of complete medium was directly added and cells were centrifuged for 2 minutes at 400g. The medium was removed and the cells were resuspended in 200 μL of complete medium.
# (§5) The cells incubated in 50 μL of fresh medium were directly observed by microscopy (Bright-field and fluorescence) at different power fields (4× to 40×). The cells were observed using a CoolSNAP-PRO™ camera (Series A02D874021) and images were acquired using the Image-Proplus™ software.
# (§6) The fluorescence of GFP was quantified using flow cytometry (Accuri C6, Becton, Dickinson and Company (BD)).
# THP-1 cells [8] = test: GFP-NLS protein transduction assay (flow cytometry: Pos cells %, viability %, relative fluorescence intensity; microscopy); settings: for Mean % cells with GFP signal (±St. Dev.; n = 3): THP-1 cells, GFP-NLS 10 μM
# Procedure: as §3, §4, §5, §6
# primary myoblasts = test: Calcein endosomal escape assay, quantification by flow cytometry (mean counts, Mean Factor); assay type: cell-based, Human; settings: myoblast cells
# From the text: Calcein is a membrane-impermeable fluorescent molecule that is readily internalized by cells when administered to the extracellular medium. Its fluorescence is […] and calcein self-quenches at higher concentrations. Once internalized, calcein becomes sequestered at high concentrations in cell endosomes and can be visualized by fluorescence microscopy as a punctate pattern. Following endosomal leakage, calcein is released to the cell cytoplasm and this release can be visualized by fluorescence microscopy as a diffuse pattern.
# The cells were allowed to attach by incubating overnight in appropriate growth media, as described in Example 1. The next day, the media in wells was removed and replaced with 50 μL of fresh media without serum containing 62.5 μg/mL (100 μM) of calcein, except for HEK293A (250 μg/mL, 400 μM). […]
# Untreated calcein-loaded cells were used as a control to distinguish cells having a baseline of fluorescence due to endosomally-trapped calcein from cells having increased fluorescence due to release of calcein from endosomes. Fluorescence signal means (“mean counts”) were analyzed for endosomal escape quantification. In some cases, the “Mean Factor” was calculated, which corresponds to the fold-increase of the mean counts relative to control (untreated calcein-loaded cells). […] The cellular mortality was monitored with the percentage of cells in the total events scanned. […]
# HeLa cells [9] = assay type: cell-based, Human; settings: GFP (5 μM), 1 hour
# Procedure: One day before the transduction assay was performed, cells in exponential growth phase were harvested and plated in a 96-well plate (20,000 cells per well). The cells were incubated overnight in appropriate growth media containing FBS (see Example 1). The next day, in separate sterile 1.5 mL tubes, cargo protein at the indicated concentration was pre-mixed (pre-incubated) for 1 or 10 min (depending on the protocol) at 37° C. with the peptide(s) to be tested shuttle agents (0.5 to 5 μM) in 50 μL of fresh medium without serum (unless otherwise specified). The media in wells was removed and the cells were washed three times with freshly prepared phosphate buffered saline (PBS) previously warmed at 37° C. The cells were incubated with the cargo protein/shuttle agent mixture at 37° C. for the indicated time (e.g., 1, 5 or 60 min). After the incubation, the cells were quickly washed three times with freshly prepared PBS and/or heparin (0.5 mg/mL) previously warmed at 37° C. […] The cells were finally incubated in 50 μL of fresh medium with serum at 37° C. before analysis.
# The Olympus filter U-MF2™ (C54942-Exc495/Em510) was used to observe GFP and FITC-labeled antibody fluorescent signals. […] The Olympus filter U-MWU2™ (Exc330/Em385) was used to observe DAPI or Blue Hoechst fluorescent signals. The cells incubated in 50 μL of fresh medium were directly observed by microscopy (Bright-field and fluorescence) at different power fields (4× to 40×). The cells were observed using a CoolSNAP-PRO™ camera (Series A02D874021) and images were acquired using the Image-Proplus™ software.
# The fluorescence of GFP was quantified using flow cytometry (Accuri C6, Becton, Dickinson and Company (BD)). Untreated cells were used to establish a baseline in order to quantify the increased fluorescence due to the internalization of the fluorescent protein in treated cells. The percentage of cells with a fluorescence signal above the maximum fluorescence of untreated cells, “mean %” or “Pos cells (%)”, is used to identify positive fluorescent cells. “Relative fluorescence intensity (FL1−A)” corresponds to the mean of all fluorescence intensities from each cell with a fluorescent signal after fluorescent protein delivery with the shuttle agent. Also, the events scanned by flow cytometry corresponding to cells (size and granularity) were analyzed. The cellular toxicity (% cell viability) was monitored comparing the percentage of cells in the total events scanned of treated cells comparatively to untreated cells.
# HeLa cells [10] = test: TAT-GFP protein transduction assay (flow cytometry, cell viability, fluorescence microscopy); assay type: cell-based, Human; settings: TAT-GFP 5 μM, 1 hour
# Procedure: Briefly, TAT-GFP recombinant protein (5 μM) was co-incubated with different concentrations of CM18-TAT-Cys (0, 0.5, 1, 3, or 5 μM) and then exposed to HeLa cells for 1 hour.
# HeLa cells [11] = test: FITC-labeled anti-tubulin antibody transduction assay (flow cytometry, cell viability, microscopy); settings: FITC-labeled anti-tubulin antibody 0.5 μM, HeLa, 1 hour; shuttle 3.5 μM
# Procedure: The delivery and microscopy protocols are described in Example 3.
# HeLa cells were cultured and tested in the protein transduction assay described in Example 3.1. […] The cells were subjected to flow cytometry analysis as described in Example 3.3.
sequence,measurement,setting,value
HHHHHHLLKLWSRLLKEWTQGRRLEAKRAEAHHHHHH [FSD23],"delivery of CRISPR/Cpf1 complex, cleavage of genomic B2M (in words)",B2M genomic DNA sequence,successful delivery of the CRISPR genome-editing complexes to the nucleus
same,"transduction of functional anti-Active Caspase 3 antibodies (cleaved PARP, in words)",THP-1 cells [1],successfully transduced functional anti-Active Caspase 3 antibodies
same,"transduction of functional anti-Active Caspase 3 antibodies (cleaved PARP, in words)",Jurkat cells,successfully transduced functional anti-Active Caspase 3 antibodies
same,NKG2A receptor expression on the cell surface after genome editing,NK-92 cells,two cell populations (peaks) were observed
same,viability,in vitro [2],65.3 ± 5.44%
same,viability,in vitro [3],98.2 ± 1.03%
same,Mean % cells with GFP signal (±St. Dev.; n = 3),HeLa cells [4],0.04 ± 0.00%
same,Mean % cells with GFP signal (±St. Dev.; n = 3),HeLa cells [5],50.34 ± 4.29%
HHHHHHLLKLWSRLLKTWTQGRRLKAKSAQASTRQAHHHHHH [FSD19],"delivery of CRISPR/Cpf1 complex, cleavage of genomic B2M (in words)",B2M genomic DNA sequence,successful delivery of the CRISPR genome-editing complexes to the nucleus
same,functionality of transduced anti-NUP98 antibody (microscopy),HeLa cells [6],anti-NUP98 antibody retained its functionality inside the cell following its transduction
same,viability,in vitro [2],80.6 ± 5.36%
same,"viability at 15 s, 5 µM",in vitro [7],60.5 ± 5.71%
same,"viability at 0.5 min, 2 µM",in vitro [7],68.7 ± 4.29%
same,viability,in vitro [3],97.4 ± 2.07%
same,Mean % cells with GFP signal (±St. Dev.; n = 3),HeLa cells [4],0.24 ± 0.00%
same,Mean % cells with GFP signal (±St. Dev.; n = 3),HeLa cells [5],55.17 ± 4.62%
same,Mean % cells with GFP signal (±St. Dev.; n = 3),"THP-1 cells [8]; peptide 2 μM, incubation 0.5 min",55.4 ± 4.63%
same,Mean % cells with GFP signal (±St. Dev.; n = 3),"THP-1 cells [8]; peptide 5 μM, incubation 0.25 min",61.5 ± 6.07%
KWKLFKKIGAVLKVLTTGYGRKKRRQRRRC [CM18-TAT-Cys],peptide concentrations associated with an increase in cell toxicity,primary myoblasts,above 10 μM
same,Cell viability (%),HeLa cells [9]; shuttle 0.5 μM,88.4 ± 6%
same,Cell viability (%),HeLa cells [9]; shuttle 1 μM,90 ± 6%
same,Cell viability (%),HeLa cells [9]; shuttle 3 μM,91 ± 5%
same,Cell viability (%),HeLa cells [9]; shuttle 5 μM,90 ± 7%
same,FIG. 11B Cell viability (%) (±St. Dev.; n = 3),HeLa cells [10]; shuttle 0.5 μM,84.36 ± 5%
same,FIG. 11B Cell viability (%) (±St. Dev.; n = 3),HeLa cells [10]; shuttle 1 μM,89.26 ± 5.26%
same,FIG. 11B Cell viability (%) (±St. Dev.; n = 3),HeLa cells [10]; shuttle 3 μM,93.18 ± 6.28%
same,FIG. 11B Cell viability (%) (±St. Dev.; n = 3),HeLa cells [10]; shuttle 5 μM,95.14 ± 5.28%
same,FIG. 19B Cell viability (%) (± St. Dev.; n = 3),HeLa cells [11],95 ± 4.06%
same,"viability at 1 h, 1 µM",in vitro [2],94 ± 4.28%
same,viability,in vitro [3],96.3 ± 1.86%
same,FIG. 13B Cell viability (%) (±St Dev.; n = 3),HeLa cells [5]; shuttle 0.5 μM,87.6 ± 4%
same,FIG. 13B Cell viability (%) (±St Dev.; n = 3),HeLa cells [5]; shuttle 1 μM,93 ± 8%
same,FIG. 13B Cell viability (%) (±St Dev.; n = 3),HeLa cells [5]; shuttle 5 μM,93 ± 4%
same,FIG. 21B Cell viability (%) (±St. Dev.; n = 3),HeLa cells [5]; shuttle 3 μM,89 ± 5.37%
same,FIG. 21B Cell viability (%) (±St. Dev.; n = 3),HeLa cells [5]; shuttle 5 μM,81 ± 6.34%
same,FIG. 17B Cell viability (%) (±St Dev.; n = 3),"THP-1 cells [8]; Table 5.5, GFP-NLS 5 μM, THP-1, 5 minutes, shuttle 1 μM",85 ± 6%
